According to patent publication US10870875B2, “Metalloprotein compositions” (Commonwealth Scientific and Industrial Research Organisation, priority 2014, dated 2020):
Changes are numbered by the printed parent chain.

How the values were obtained:
[1] = target: T1, Oecophylla smaragdina silk fibroin 3 (GA3), SEQ ID NO: 11 (Oecophylla smaragdina, UniProt A8IM91); assay: Haem b leached into green ant silk GA3 film; format: binding; conditions: signal at around 400 nm
T1 construct: film
T1 sequence (A8IM91 20-395): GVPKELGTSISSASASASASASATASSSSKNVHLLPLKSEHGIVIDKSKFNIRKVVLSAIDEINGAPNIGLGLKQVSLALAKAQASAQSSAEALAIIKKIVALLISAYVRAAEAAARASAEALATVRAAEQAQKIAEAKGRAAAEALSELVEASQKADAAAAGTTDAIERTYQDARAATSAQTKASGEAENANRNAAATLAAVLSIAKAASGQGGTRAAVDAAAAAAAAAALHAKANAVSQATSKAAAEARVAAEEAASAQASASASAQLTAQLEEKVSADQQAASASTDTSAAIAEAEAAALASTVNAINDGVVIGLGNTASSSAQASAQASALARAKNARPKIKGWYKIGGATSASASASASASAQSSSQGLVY
Text: (§1) Full length, recombinant honeybee silk proteins (AmelF3) without affinity purification tags, were produced by fermentation in Escherichia coli as described in Weisman et al. (2010). Full length, recombinant Weaver Ant/Green Ant (Oecophylla smaragdina) silk proteins (GA1, GA2, GA3, GA4) without affinity purification tags, were produced by fermentation in Escherichia coli following the same procedures as outlined in Weisman et al. (2010).
(§2) Alternatively, haem b was ‘leached’ into a pre-formed film. The AmelF3 material was formed as described in example 1. The silk material was soaked in a solution of haem b (0.5 mg/mL; haem b in excess) in 70% methanol solution for between 1 and 48 hours followed by washing with 70% methanol to remove any unbound haem b and dried at room temperature.
(§3) Transparent films from the Green Ant (Oecophylla smaragdina) (GA1-4) silk proteins were prepared as described above. Haem b in 70% methanol was leached into the preformed Green Ant silk film as described at Example 3. UV/Vis spectra were collected for Green Ant silk film after haem b had been leached.

[2] = target: T2, Apis mellifera AmelF3 (SEQ ID NO: 39) variant Y76H A97H (Apis mellifera, UniProt A0ACM8QI31, A116H/Y95H); assay: Binding of heme to AmelF3 Y76H A97H; conditions: Soret peak vs heme ratio
T2 sequence (A0ACM8QI31 20-335 Y95H/A116H): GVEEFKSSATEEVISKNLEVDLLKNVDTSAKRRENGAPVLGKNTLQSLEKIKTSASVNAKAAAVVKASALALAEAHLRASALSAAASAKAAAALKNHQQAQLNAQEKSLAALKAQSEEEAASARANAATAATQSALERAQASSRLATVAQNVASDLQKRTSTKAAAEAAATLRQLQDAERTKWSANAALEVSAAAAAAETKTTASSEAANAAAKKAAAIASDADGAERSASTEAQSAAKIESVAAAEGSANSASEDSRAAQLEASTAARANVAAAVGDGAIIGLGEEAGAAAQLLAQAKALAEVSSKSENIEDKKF
Method: (§4) Site directed mutagenesis of honeybee silk proteins was carried using methods known to the person skilled in the art. For example, to generate AmelF3 Tyr76Ala, the forward primer 5′-[…]-3′ (SEQ ID NO: 80) with the corresponding reverse primer was employed and site directed mutagenesis was carried out using Pfx 50 DNA polymerase from Invitrogen following the Pfx50 manufactures instructions. All AmelF3 mutants were expressed and purified using a similar procedure as the unmodified AmelF3 silk protein. To generate AmelF3 Tyr76His, the forward primer 5′-[…]-3′ (SEQ ID NO: 81) with the corresponding reverse primer was employed. To generate AmelF3 Ala97His, the forward primer 5′-[…]-3′ (SEQ ID NO: 82) was used.
(§5) A coordinating His residue (His97) was introduced into AmelF3 with Y76H substitution in the a-position of the coiled-coil.

[3] = target: T3, Apis mellifera AmelF3 (SEQ ID NO: 39) variant Tyr76Ala (Apis mellifera, UniProt A0ACM8QI31, Y95A); assay: Binding of chelates to AmelF3 Tyr76Ala sponges or films; conditions: sponge washed with aqueous methanol, qualitative
T3 construct: sponge or film
T3 sequence (A0ACM8QI31 entry or part of it Y95A): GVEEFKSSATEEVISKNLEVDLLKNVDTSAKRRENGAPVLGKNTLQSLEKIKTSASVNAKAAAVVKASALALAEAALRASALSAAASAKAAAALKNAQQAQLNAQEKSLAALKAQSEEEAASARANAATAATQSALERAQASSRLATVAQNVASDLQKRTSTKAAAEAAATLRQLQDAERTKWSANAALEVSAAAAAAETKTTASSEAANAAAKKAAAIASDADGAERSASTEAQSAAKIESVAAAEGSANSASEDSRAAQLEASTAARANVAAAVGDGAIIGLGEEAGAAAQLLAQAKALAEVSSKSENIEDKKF
Method: as §4
To test whether Tyr76 was indeed the coordinating ligand, the present inventors replaced Tyr76 with an alanine using site directed mutagenesis of the AmelF3 silk gene.

[4] = target: T4, Apis mellifera AmelF3 (SEQ ID NO: 39) variant Tyr76His (Y76H) (Apis mellifera, UniProt A0ACM8QI31, Y95H); assay: Binding of haem b to AmelF3 Tyr76His; conditions: UV/Vis, in solution and film
T4 construct: solution and film
T4 sequence (A0ACM8QI31 20-335 Y95H): T2 sequence (A0ACM8QI31 20-335 Y95H/A116H) with H97A
Method: as §4
The present inventors also mutated Tyr76 to a histidine and investigated the effect the single amino acid substitution had on binding to haem b. […] The sharp peak observed at around 400 nm is indicative of the coordination of an amino acid residue to the iron haem centre.
as §5

[5] = target: T5, Oecophylla smaragdina silk fibroin 1 (GA1), SEQ ID NO: 9 (Oecophylla smaragdina, UniProt A8IM81); assay: Haem b leached into green ant silk GA1 film; format: binding; conditions: signal at around 400 nm
T5 construct: film
T5 sequence (A8IM81 20-391): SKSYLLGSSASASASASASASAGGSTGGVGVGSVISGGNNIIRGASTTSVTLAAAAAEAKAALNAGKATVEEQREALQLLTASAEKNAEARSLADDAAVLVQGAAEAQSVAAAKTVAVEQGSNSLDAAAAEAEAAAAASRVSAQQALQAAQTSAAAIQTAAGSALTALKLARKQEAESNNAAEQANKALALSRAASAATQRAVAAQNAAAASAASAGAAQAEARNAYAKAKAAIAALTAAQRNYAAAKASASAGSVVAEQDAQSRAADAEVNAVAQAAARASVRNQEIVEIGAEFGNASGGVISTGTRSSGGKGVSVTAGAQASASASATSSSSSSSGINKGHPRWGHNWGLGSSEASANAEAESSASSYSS
Text: as §1, §2, §3

C=CC1=C(C)c2cc3[nH]c(cc4nc(cc5[nH]c(cc1n2)c(C)c5CCC(=O)O)C(CCC(=O)O)=C4C)c(C)c3C=C.[Fe] [haem b]
haem binding (in words) [1]: strongly bound haem
number of heme cofactors bound [2]: two
binding to silk protein (in words) [3]: bound to the silk protein, the metal ion was not coordinated to the polypeptide
binding to silk protein (in words) [4]: bound haem b via a co-ordinate bond
haem binding (in words) [5]: strongly bound haem
